A melting point compilation (Tetko et al.; mined from patent text by program, amines drawn as free bases though some values may be those of a salt)

Row | Structure (SMILES) | melting point
1 | CCCc1nc(Sc2ccc(OC)cc2)c(CC(=O)O)n1Cc1cc2c(cc1Cl)OCO2 | 187 °C
2 | O=C(O)CCCC1CCCNC1 (stereo not given) | 208 to 210 °C
3 | C[C@@H](NC(=O)c1c[nH]c2ncc(-c3nn(C)c4cc(Cl)cc(F)c34)nc12)C(=O)N1CC(C#N)C1 | 267 to 268 °C
4 | C#Cc1ccc(-c2[nH]c(=O)c3cc(OC)ccc3c2[N+](=O)[O-])cc1 | 246 to 248 °C
5 | N#CC(C(=O)NCc1ccccc1)C(=O)c1nn(-c2ccc(F)cc2)c2c1CSc1ccc(Cl)cc1-2 (stereo not given) | 216 to 218 °C
6 | CCn1cc(C(=O)O)c(=O)c2cc(F)c(N3CCC(NC(=O)OC(C)(C)C)C3)c(C)c21 (stereo not given) | 184 to 188 °C
7 | CCOC(=O)C1=C(C)N(CCOC(=O)c2ccccc2)C(=O)NC1c1ccc(OC)cc1 (stereo not given) | 75 °C
8 | O=C(C=Cc1ccc2c(c1)OCO2)N1CCc2c([nH]c3ccccc23)C1c1ccc2c(c1)OCO2 (stereo not given) | 233 °C
9 | OC(Cn1cncn1)(c1ccc(F)cc1)c1ccccc1Cl (stereo not given) | 115 to 116 °C
10 | CN1CCC(OC2c3cccc(-c4ccc(F)cc4)c3CCn3cc(-c4ccccc4)nc32)CC1 (stereo not given) | 95 °C
11 | O=c1c2cc([N+](=O)[O-])ccc2nc2n1CS(=O)(=O)N2 | > 300 °C
12 | Cc1nnc(COc2ccc(NC(=O)/C=C/c3cnn(C)c3-c3ccc(F)cc3)cc2)o1 | 117 to 118 °C
13 | COc1ccc(C(=O)c2ccc(OCc3nc(-c4ccccc4)oc3C)cc2)c(OC(C)(C)C(=O)O)c1 | 175 to 177 °C
14 | Cc1ccc2c(c1)cc(C(=O)O)n2CC(=O)OC(C)(C)C | 174 to 176 °C
15 | Cn1nc(Oc2ccc(Cl)c(O)c2)c(Cl)c1C(F)(F)F | 106 to 108 °C
16 | COc1cc(C=O)cc(-c2cc3c(cc2F)c(=O)c(C(=O)O)cn3C2CC2)c1OC | > 230 °C
17 | N#Cc1ccc(-c2ccc(C#N)c(N)c2)cc1N | 243 °C
18 | COc1ccc2[nH]c(C=Cc3ccc(OC)c(OC)c3)nc2c1 | 246 to 249 °C
19 | N#CSCC(=O)c1cccc(Br)c1 | 91 to 93 °C
20 | O=C(NC(Cc1ccc(OCc2ccccc2)cc1)C(=O)O)c1cc2cc(-c3ccc(Cl)cc3)ccc2[nH]c1=O (stereo not given) | 298 to 299 °C
21 | O=c1[nH]c2cc(Cl)ccc2n1CCCBr | 162 °C
22 | O=c1[nH]c(-n2cccn2)nc2ccccc12 | 148 to 150 °C
23 | CC(Sc1ccccc1)n1cc(C2=C(c3cn(C(C)Sc4ccccc4)c4ccccc34)C(=O)NC2=O)c2ccccc21 (stereo not given) | 102 to 105 °C
24 | CCCCc1nc2c(N)nc3cccnc3c2n1CCNC(=O)C1CCCCC1 | 188 to 190 °C

Row | Structure (SMILES) | melting point
25 | FCc1nnc2n1-c1ccc(Cl)cc1C(c1ccccc1)=NC2 | 153 to 154 °C
26 | CCCc1c(OCCOCCOc2ccc3ccc(OCCCC(=O)O)cc3c2C(C)=O)ccc(C(C)=O)c1O | 71 to 75 °C
27 | CCCn1nc2c(N)nc3c(c2c1CCCc1cc(C(C)C)no1)CCCC3 | 147 to 149 °C
28 | C#CCN(Cc1cc2c(=O)n(C)c(CN3CCN(CC)CC3)nc2cc1Cl)c1ccc(C(=O)OC(C)(C)C)cc1 | 145 to 146 °C
29 | CSc1ccc(CN(C)CCOc2ccc(NC(=O)c3cccc4c(=O)c5ccccc5[nH]c34)cc2)cc1 | 150 °C
30 | CC(C)S(=O)(=O)NC(=O)Nc1ccc(Cl)c(C(F)(F)F)c1 | 135 to 140 °C
31 | O=C1N(CCCCN2CCN(c3n[nH]c4cc(F)ccc34)CC2)CSC12CCCC2 | 132 to 134 °C
32 | CN(c1cccc2cc(C3=NCC(CN4CCS(=O)CC4)S3)[nH]c12)S(=O)(=O)c1nccn1C (stereo not given) | 161 to 162 °C
33 | COC(=O)C(C)Oc1ccc(NC(=O)CCCCCOCc2ccccc2)cc1 (stereo not given) | 73 to 76.5 °C
34 | COc1cc(C)c(NCCO)cc1[N+](=O)[O-] | 94 °C
35 | CN1CC(C(=O)COC(=O)c2ccncc2)CC2c3cccc4[nH]cc(c34)CC21 (stereo not given) | 158 to 161 °C
36 | CCc1cc(NC(=O)c2nnn(Cc3ccccc3)n2)c(O)c(C(C)=O)c1 | 159 to 161 °C
37 | c1cc(Cc2nnn[nH]2)cc(OCc2ncc3ccccc3n2)c1 | 129 to 131 °C
38 | COc1ccc2c(c1)cc(C(=O)O)n2C(C)=O | 173 to 175 °C
39 | O=C(O)c1ccc([N+](=O)[O-])cc1NC(=O)C(F)(F)F | 198 °C
40 | OC1(C2CCN(Cc3ccccc3)CC2)c2ccsc2CCn2ccnc21 (stereo not given) | 189 °C
41 | CC(=S)NC[C@H]1CN(c2ccc3c(c2)C[C@@H](C)N3C(=O)CO)C(=O)O1 | 115 to 117 °C
42 | CC(=O)CC(=O)NC1CCCC1 | 52 °C
43 | COc1ccc2[nH]c3c(c2c1)CCS(=O)(=O)CCC3 | 231 to 233 °C
44 | O=C(NCc1ccc(Br)cc1)c1c(F)cccc1F | 142 °C
45 | O=C(O)c1[nH]c(-c2cccs2)cc1-c1ccc(F)cc1 | 194 to 195 °C
46 | CCCCCCCCCCNC(=O)Nc1ccccc1C(=O)NC1CCN(C(c2ccccc2)c2ccccc2)CC1 | 204 to 206 °C
47 | CC(Br)=C(Br)CC(O)(Cn1cncn1)C1(Cl)CC1 (stereo not given) | 55 to 56 °C
48 | CCCCn1c(=O)n(CCC)c(=O)c2c3n(nc21)CCCN3C | 94 to 98 °C

Row | Structure (SMILES) | melting point
49 | CC(=O)OCC(=O)COC(C)=O | 45.5 to 46.6 °C
50 | CCc1nn(CCO)c(CC)c1Oc1cc(F)cc(-n2cccn2)c1 | 120 to 122 °C
51 | CN(Cc1cc2c3c(c1)c(=O)c(C(=O)NCc1ccc(Cl)cc1)cn3CC(=O)N2C)C[C@@H](O)c1nccs1 | 125 to 130 °C
52 | Cc1ccc2nc(CCl)nc(Cl)c2c1 | 111 to 112 °C
53 | OC(Cc1ccc(Cl)cc1Cl)(Cn1cnnc1)c1ccc(-c2ccccc2)cc1 (stereo not given) | 260 °C
54 | CC[C@@H](CNc1ccc(C)cc1C)NS(=O)(=O)c1c(N)cc(Cl)cc1Cl | 151 °C
55 | CCNC(=O)c1ccc(N2CCN(Cc3cc(Cc4ccccc4)c4c(c3)NC(=O)C(C)O4)CC2)cc1 (stereo not given) | 198 to 206 °C
56 | CC1(C2CC2)OC(=O)Nc2ccc(-c3cccc(Cl)c3)cc21 (stereo not given) | 158 to 159 °C
57 | NS(=O)(=O)c1ccccc1S(=O)(=O)NC1CC1 | 202 to 203 °C
58 | NC(CCO)C(=O)Nc1ccc(Cl)cc1Cl (stereo not given) | 89 to 91 °C
59 | C=Cc1ccc(CN2C(=O)c3ccccc3C2=O)c(Cl)c1 | 141 to 143 °C
60 | Cc1nc(-c2ccc(NCC(=O)O)cc2)no1 | 178 to 181 °C
61 | COc1ccc(C2C3=C(COC3=O)Nc3onc(-c4ccc(Cl)cc4)c32)cc1O (stereo not given) | 245 to 246 °C
62 | CCOC(=O)C1=Cc2cc(C(C)=O)ccc2OC1C(F)(F)F (stereo not given) | 101 to 103 °C
63 | O=C(O)CC(=O)Nc1cc2ccccc2cc1C(=O)O | 225 to 227 °C
64 | CC(c1ccnc(N)c1)C(O)(Cn1cncn1)c1ccc(F)cc1F (stereo not given) | 182 to 185 °C
65 | Cc1cccc2c(C(=O)O)cn(C)c12 | 243 °C
66 | CC(C)(Oc1ccc(CCC(=O)c2ccc(-c3ccc(Br)cc3)s2)c(Cl)c1Cl)C(=O)O | 155 to 157 °C
67 | C(=C\c1nc(COc2ccc(CCCn3ncnn3)cc2)co1)/c1ccccc1 | 97 to 98 °C
68 | C[C@H]1C(=O)Nc2ccc(Cl)cc2N1C(=O)Oc1ccc(Cl)cc1 | 185 to 188 °C
69 | CSCC(O)C1(Sc2ccccc2)C(=O)N2C1CCOC2(C)C (stereo not given) | 83 to 85 °C
70 | COc1ccc2c(c1)NC1(CCN(C(C)=O)CC1)c1cccn1-2 | 211 to 213 °C
